Reference: patent US20210308034A1, “PREBIOTIC COMPOSITIONS AND METHODS FOR MAINTAINING A HEALTHY SKIN MICROBIOTA” (KIMBERLY-CLARK WORLDWIDE, INC., priority 2018, published 2021)
Where a SMILES comes first, the peptide text is derived from it.

Key:
Assay type in all cases: cell-based
[1] = system: commensal and pathogenic skin bacteria; assay: Carbohydrate Screening Test Method, all bacteria codes tested; conditions: ten bacteria codes of Table 1
Source text: (§1) After creating desired ratios of various commensal skin bacteria in a healthy skin microbiome, 188 different carbohydrate sources were screened as the next step in determining potential prospects for skin microbiota balancing agents. The screening process was set up to determine which carbohydrate sources promoted commensal and/or pathogenic bacteria as well as to obtain individual and combinations of carbohydrate sources that could serve as microbiota balancing agents that can support or maintain the healthy proportions of commensal skin bacteria of Corynebacterium, Staphylococcus, and Micrococcus. The screening was conducted utilizing Biolog phenotype microarray plates (Hayward, Calif.). Table 1 provides a coded list of the commensal and pathogenic skin bacteria that the carbohydrates were screened against.
(§2) The Bacteria Codes B, D, E, I, and J are commensal bacteria and are shaded in Table 2 for references purposes. The bacteria codes were each placed in a carbon microarray plate and screened through the Carbohydrate Screening Test Method, as described in the Test Methods section herein. If a particular bacteria code utilized a specific carbohydrate source as described in the Carbohydrate Screening Test Method, then the corresponding cell in Table 2 was marked with a Y (short for “Yes”).
(§3) The study employed 10 representative skin bacteria; Staphylococcus epidermidis ATCC 14990, Staphylococcus epidermidis M23864:W2, Staphylococcus aureus ATCC 6538, Staphylococcus aureus ATCC 25904 (Newman), Pseudomonas aeruginosa ATCC 9027, Micrococcus luteus ATCC […], Micrococcus luteus SK58, Klebsiella pneumoniae ATCC BAA-2146, Corynebacterium amycolatum SK46, and Corynebacterium minutissimum ATCC 23348. Cultures were started from freezer bead stocks by placing a single bead into 20 mL of tryptic soy broth (TSB) for all organisms except C. amycolatum SK46 and C. minutissimum ATCC 23348, which were placed into brain heart infusion (BHI) broth. Cultures were grown for about 24 hr at 37° C. except M. luteus ATCC 49732 and M. luteus SK58, which were grown at 30° C. A passage of the culture was made using a sterile swab and streaked onto two M9*2 agar plates to prepare the incubated culture for the phenotype microarray pate according to Table 4. Plates were incubated for about 24 hr at 37° C. except for M. luteus ATCC 49732 and M. luteus SK58, which were incubated at 30° C. for 24 hr.
(§4) All cultures were harvested and washed before inoculation into the carbon microarray plate (BiOLOG, Hayward Calif.), with Biolog Plates PM1 and PM2 each having a source definition of Carbon. The bacteria on the M9*2 agar was suspended via agitation with an inoculating loop in 1 mL of M9*1 media for collection in a 1.7 mL micro centrifuge tube, as noted in Table 4. The bacteria was suspended again in M9*1 media, agitated, and collected into the same 1.7 mL microcentrifuge tube used in the previous step. The tube was centrifuged for 5 minutes at 4,000×G, supernatant decanted, the pellet was resuspended in 1 mL of M9*1 media, and vortex. This washing process was repeated for a total of 4 times.
A tenfold dilution in M9*1 media was performed using 1 mL of the washed bacterial culture.

[2] = system: Pseudomonas aeruginosa (ATCC 9027); conditions: Pathogenic; carbon microarray plate, OD 600 nm, 36 hr, 33° C.; positive = more than 0.05 OD units above zero; blank cell = not utilized
Source text: as §1, §2, §3, §4
(§5) A tenfold dilution in M9*1 media was performed using 1 mL of the washed bacterial culture. Of the tenfold dilution 200 μL was placed in an untreated 96-well plate (Falcon, Pasadena Tx.) for an initial optical density (OD) reading at a wavelength of 600 nm. The OD was used to correlate to colony forming units (CFU) per milliliter by using linear regression lines for each organism.

[3] = system: Staphylococcus epidermidis (M23864:W2); assay: Carbohydrate Screening Test Method (Biolog phenotype microarray), Bacteria Code J; conditions: Commensal; carbon microarray plate, OD 600 nm, 36 hr, 33° C.; positive = more than 0.05 OD units above zero; blank cell = not utilized
Source text: as §1, §2
(§6) To do so, the respective microarray data for the 79 carbohydrate sources was run through the GrowthRates 2.1 program to obtain growth parameters, such as growth rates and maximum yield data as described by the Belingham Research Institute, Hall, B. G., H. Acar and M. Barlow. 2014 Growth Rates Made Easy. Mol. Biol. Evol. 31:232-238 doi:10.1093/molbev/mst197. The max yield parameters generated were utilized to calculate ratios of tested commensal bacteria. The ratios calculated were compared back to the desired ratios identified above (Corynebacterium to Staphylococcus of 1.3, Corynebacterium to Micrococcus of 1.4, and Staphylococcus to Micrococcus of 1.1).
(§7) As an example of this methodology used to calculate the commensal bacteria ratios and the difference between the calculated ratios and the desired ratios, an example code from Table 3 will be described. […] The max yields were then used to calculate ratios the bacteria would reach in a co-culture.

[4] = system: Corynebacterium jeikum (ATCC 33033); assay: Carbohydrate Screening Test Method (Biolog phenotype microarray), Bacteria Code B; conditions: Commensal; carbon microarray plate, OD 600 nm, 36 hr, 33° C.; positive = more than 0.05 OD units above zero; blank cell = not utilized
Description: as §1, with “The” for “After creating desired ratios of various commensal skin bacteria in a healthy skin microbiome, 188 different carbohydrate sources were screened as the next step in determining potential prospects for skin microbiota balancing agents. The”
as §2
as §6, with “2014 Growth Rates Made Easy.” left out, “31:232-238 doi:10.1093/molbev/mst197.” left out
as §7
A passage of the culture was made using a sterile swab and streaked onto two M9*2 agar plates to prepare the incubated culture for the phenotype microarray pate according to Table 4.
All cultures were harvested and washed before inoculation into the carbon microarray plate (BiOLOG, Hayward Calif.), with Biolog Plates PM1 and PM2 each having a source definition of Carbon. The bacteria on the M9*2 agar was suspended via agitation with an inoculating loop in 1 mL of M9*1 media for collection in a 1.7 mL micro centrifuge tube, as noted in Table 4.

[5] = system: Micrococcus luteus (SK58); assay: Carbohydrate Screening Test Method (Biolog phenotype microarray), Bacteria Code E; conditions: Commensal; carbon microarray plate, OD 600 nm, 36 hr, 33° C.; positive = more than 0.05 OD units above zero; blank cell = not utilized
Source text: as §1, §2, §6, §7

[6] = system: Klebsiella pneumoniae (ATCC BAA-2146); conditions: Pathogenic; carbon microarray plate, OD 600 nm, 36 hr, 33° C.; positive = more than 0.05 OD units above zero; blank cell = not utilized
Source text: as §1
Table 2 provides the results of screening various carbohydrate sources against the commensal and pathogenic bacteria codes listed in Table 1. The Bacteria Codes B, D, E, I, and J are commensal bacteria and are shaded in Table 2 for references purposes. The bacteria codes were each placed in a carbon microarray plate and screened through the Carbohydrate Screening Test Method, as described in the Test Methods section herein. If a particular bacteria code utilized a specific carbohydrate source as described in the Carbohydrate Screening Test Method, then the corresponding cell in Table 2 was marked with a Y (short for “Yes”). […] Many of the carbohydrate sources were utilized by both commensal and pathogenic bacteria, and as such, would not provide an advantage for selective growth of the commensal bacteria. However, some of the carbohydrate sources were only used by commensal bacteria and were identified for further testing as described herein.
as §3, §4
as §5, with “organism. […]” for “organism.”

Row | Molecule | utilization by the bacteria codes tested [1] | Carbohydrate Screening Results, Bacteria Code F [2] | Carbohydrate Screening Results, Bacteria Code J [3] | Carbohydrate Screening Results, Bacteria Code C [6] | also measured
1 | 2,3-Butanone | not utilized by any of the bacteria | – | – | – | –
2 | C[N+](C)(C)CC(O)CC(=O)[O-] (racemic) [D,L-Carnitine] | – | Y | Y | – | –
3 | O=P(O)(O)OCC(O)CO (racemic) [D,L-α-Glycerol-Phosphate] | – | – | Y | – | Carbohydrate Screening Results, Bacteria Code B [4]: Y; Carbohydrate Screening Results, Bacteria Code E [5]: Y
4 | Nc1ncnc2c1ncn2C1CC(O)C(CO)O1 (stereo not shown) [2-Deoxy Adenosine] | not utilized by any of the bacteria | – | – | – | –
5 | O=CC[C@H](O)[C@H](O)CO [2-Deoxy-D-Ribose] | not utilized by any of the bacteria | – | – | – | –
6 | O=C(O)c1ccccc1O [2-Hydroxy Benzoic Acid] | not utilized by any of the bacteria | – | – | – | –
7 | O=C(CO)[C@@H](O)[C@H](O)[C@@H](O)C(=O)O [5-Keto-D-Gluconic Acid] | not utilized by any of the bacteria | – | – | – | –
8 | OC[C@@H](O)[C@@H](O)[C@@H](O)CO [Adonitol] | – | Y | – | Y | Carbohydrate Screening Results, Bacteria Code B [4]: Y; Carbohydrate Screening Results, Bacteria Code E [5]: Y
9 | C[C@@H](O)[C@H](O)[C@H](O)[C@@H](O)C=O [D-Fucose] | not utilized by any of the bacteria | – | – | – | –
10 | O=C[C@H](O)[C@@H](O)[C@@H](O)[C@H](O)CO [D-Galactose] | – | Y | Y | Y | Carbohydrate Screening Results, Bacteria Code B [4]: Y; Carbohydrate Screening Results, Bacteria Code E [5]: Y
11 | O=C(O)[C@H](O)[C@@H](O)[C@H](O)[C@H](O)CO [D-Gluconic Acid] | – | Y | Y | Y | Carbohydrate Screening Results, Bacteria Code B [4]: Y; Carbohydrate Screening Results, Bacteria Code E [5]: Y
12 | O=C[C@H](O)[C@@H](O)[C@H](O)[C@H](O)C(=O)O [D-Glucuronic Acid] | – | Y | – | Y | Carbohydrate Screening Results, Bacteria Code B [4]: Y; Carbohydrate Screening Results, Bacteria Code E [5]: Y
13 | OC[C@H]1O[C@H](OCC2O[C@@H](O)[C@H](O)[C@@H](O)[C@@H]2O)[C@H](O)[C@@H](O)[C@H]1O (stereo partly drawn) [D-Melibiose] | – | Y | – | Y | Carbohydrate Screening Results, Bacteria Code B [4]: Y; Carbohydrate Screening Results, Bacteria Code E [5]: Y
14 | O=C(CO)[C@H](O)[C@H](O)[C@H](O)CO [D-Psicose] | – | Y | – | Y | Carbohydrate Screening Results, Bacteria Code B [4]: Y; Carbohydrate Screening Results, Bacteria Code E [5]: Y
15 | O=C[C@H](O)[C@H](O)[C@H](O)CO [D-Ribose] | not utilized by any of the bacteria | – | – | – | –
16 | N[C@H](CO)C(=O)O [D-Serine] | not utilized by any of the bacteria | – | – | – | –
17 | OC[C@@H](O)[C@@H](O)[C@H](O)[C@@H](O)CO [D-Sorbitol] | – | Y | – | Y | Carbohydrate Screening Results, Bacteria Code E [5]: Y
18 | O=C(CO)[C@@H](O)[C@@H](O)[C@H](O)CO [D-Tagatose] | not utilized by any of the bacteria | – | – | – | –
19 | O=C(O)[C@@H](O)[C@H](O)C(=O)O [D-Tartaric Acid] | not utilized by any of the bacteria | – | – | – | –
20 | NCC(O)c1ccc(O)cc1 [D.L-Octopamine] | – | Y | Y | Y | –
21 | OCC(O)CO [Glycerol] | – | – | Y | Y | Carbohydrate Screening Results, Bacteria Code B [4]: Y
22 | NCC(=O)O [Glycine] | not utilized by any of the bacteria | – | – | – | –
23 | NCC(=O)N1CCC[C@H]1C(=O)O [Glycyl-L-Proline] (H-Gly-Pro-OH) | not utilized by any of the bacteria | – | – | – | –
24 | CC(=O)N[C@@H](CO)[C@@H](O)[C@H](O)[C@H](O)CO [N-Acetyl-D-Glucosaminitol] | – | – | Y | – | –
25 | OC[C@H]1O[C@@H]2O[C@H]3[C@H](O)[C@@H](O)[C@@H](O[C@H]4[C@H](O)[C@@H](O)[C@@H](O[C@H]5[C@H](O)[C@@H](O)[C@@H](O[C@H]6[C@H](O)[C@@H](O)[C@@H](O[C@H]7[C@H](O)[C@@H](O)[C@@H](O[C@H]8[C@H](O)[C@@H](O)[C@@H](O[C@H]9[C@H](O)[C@@H](O)[C@@H](O[C@H]1[C@H](O)[C@H]2O)O[C@@H]9CO)O[C@@H]8CO)O[C@@H]7CO)O[C@@H]6CO)O[C@@H]5CO)O[C@@H]4CO)O[C@@H]3CO [γ-Cyclodextrin] | – | – | Y | – | –
26 | NCCCCC(=O)O [δ-Amino Valeric Acid] | – | – | Y | – | –
27 | Dextrin | – | – | Y | Y | –
28 | Mannan | – | – | Y | – | –
